Results taken from PubChem BioAssay (NCI).
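Compound exposure: 48 hours, 5 concentrations, 96-well plates. GI50 is the concentration that inhibits growth by half. TGI: total growth inhibition.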

Tests used:
Test in all cases: NCI tumour cell line growth inhibition, 48 h
[1] = tested on: XF 498 CNS
[2] = tested on: DLD-1 colon
[3] = tested on: M19-MEL melanoma
[4] = tested on: DMS 273 small cell lung
[5] = tested on: LXFL 529 NSCLC
[6] = tested on: KM20L2 colon
[7] = tested on: HOP-18 NSCLC
[8] = tested on: RXF-631 renal
[9] = tested on: MDA-N
[10] = tested on: P388 leukemia
[11] = tested on: SN12K1 renal
[12] = tested on: P388/ADR leukemia

SMILES	TGI [1] [µM]	TGI [2] [µM]	TGI [3] [µM]	TGI [4] [µM]	TGI [5] [µM]	TGI [6] [µM]	TGI [7] [µM]	TGI [8] [µM]	further results
O=C(OCCOCCOC(=O)c1c[nH]cc1-c1ccccc1)c1c[nH]cc1-c1ccccc1	34.4	71.4	34	30.6	69.2	46			
Cc1ccc(S(=O)(=O)N2CCCCC2CCO)cc1 (centres undefined)		> 100	> 100	> 100	> 100	> 100	> 100		
COC(=O)C1Cc2c([nH]c3ccccc23)C=N1 (centres undefined)		> 100	> 100	> 100	> 100	> 100	> 100		
Cc1cc2c(=O)cc(-c3ccc(Cl)cc3)oc2c(C(=O)O)c1C	> 100	> 100	> 100	> 100	> 100	> 100	> 100	> 100	
CCOC(=O)[C@H]1Nc2ccc(O)cc2C2c3ccccc3CC21 (some centres undefined)		> 100	> 100	> 100	> 100	> 100	> 100	> 100	
O=C1/C(=C/c2ccc(O)cc2)CCC1CNc1ccc(Cl)cc1 (centres undefined)		2.97	12.5	12.1	2.39	14.2	13.5	32.1	TGI [9]: 20.9 µM
CCCCOC(=O)N[C@H]1CCc2cc(OC)c(OC)c(OC)c2-c2ccc(SC)c(=O)cc21	2.55	> 100	65.7		29.5	< 0.01	> 100		TGI [9]: < 0.01 µM
O=c1c2ccccc2nc(-c2ccc(Cl)cc2)n1O									TGI [9]: > 100 µM
Cc1ccccc1NC(=O)c1[nH]c(=S)nc(N)c1-c1ccccc1C		> 100	> 100	> 100	> 100	> 100	> 100		
COc1ccc(Cc2ccccc2C(=O)O)c2ccccc12									TGI [9]: 74.4 µM
Cc1c(Cl)cccc1NC(=O)C(=O)C1C(=O)NC(=O)NC1=O	> 100	> 100	> 100	> 100	> 100	> 100	> 100		
CC(C)(C)NNc1c([N+](=O)[O-])cnn(-c2ccccc2)c1=O	5.22	9.52	5.61	10.4	3.25	13.1	32		
O=C1c2cccnc2-c2nc(-c3ccc([N+](=O)[O-])cc3)cc3c2c1nc1ccccc13									GI50 [9]: 1.75 µM; TGI [9]: 3.22 µM
NCCOc1ccccn1									TGI [9]: > 100 µM
CC(CN(CP(=O)([O-])[O-])CP(=O)([O-])[O-])N(CP(=O)([O-])[O-])CP(=O)([O-])[O-].N[C@@H]1CCCC[C@@H]1N.[Pt+2] (centres undefined)		> 100		> 100	> 100	> 100	> 100		GI50 [2]: > 100 µM; GI50 [4]: > 100 µM; GI50 [7]: > 100 µM; GI50 [5]: > 100 µM; GI50 [6]: > 100 µM
COc1ccccc1NC(=O)C1=C(C)NC(C)=C(C(=O)Nc2ccccc2OC)C1c1ccc(C(C)C)cc1	> 100	> 100	> 100	> 100	> 100	> 100	> 100	> 100	
CC(C)(C)c1cc(C(O)(C(F)(F)F)C(F)(F)F)c2c(c1)C(C(F)(F)F)(C(F)(F)F)OC(c1ccccc1)(C(C)(C)C)N2 (centres undefined)	6.24	14.6	13.8	13.6	12.5	21	6.81		
COc1nc2c(nc(N)n2C2OC(CO)C(O)C(O)C2O)c(=O)n1C (centres undefined)	> 100	> 100	> 100		> 100	> 100	> 100	> 100	
CC(=O)OCCOCNC(=S)N/N=C(\C)c1ccco1		> 100	> 100	> 100	> 100	> 100	> 100	> 100	

SMILES	TGI [1] [µM]	TGI [2] [µM]	TGI [3] [µM]	TGI [4] [µM]	TGI [5] [µM]	TGI [6] [µM]	TGI [7] [µM]	TGI [8] [µM]	further results
O=S1(=O)CSc2ccc3ccccc3c2-c2c1ccc1ccccc21	> 100	> 100	> 100	> 100	> 100		> 100	> 100	
CC(=O)O[C@H]1CC[C@@]2(C)C(=CC[C@@H]3C2CC[C@]2(C)Nc4oncc4CC32)C1 (some centres undefined)	84.4	> 100	> 100	73.5	26.5	> 100		> 100	
COC(=O)/C(C#N)=C1\N=NNN1CCCc1ccccc1		> 100	> 100	> 100	> 100		> 100	> 100	
CC(C)(C)c1ccc(-c2nnc(SCc3ccc(Cl)cc3)n2-c2cccc(C(F)(F)F)c2)cc1									TGI [9]: > 100 µM
CCN(CCCl)CCNc1c2ccccc2nc2ccc(OC)cc12	2.43	3.46	2.24	2.02	1.87	3.45	8.02	4.4	TGI [10]: 0.58 µM; TGI [11]: 3.08 µM; TGI [12]: 2.29 µM
O=C(CC1C(=O)Nc2ccccc2S1=O)Nc1cccc(Cl)c1 (centres undefined)	> 100	> 100	> 100		> 100	> 100	> 100		TGI [9]: 56.1 µM
Cc1cc(Cl)ccc1N1C(=O)C(=O)C(c2nc3ccccc3s2)C(=O)C1=O	> 100	> 100		> 100	> 100	> 100	> 100	> 100	
CCOc1ccc(NC(=O)C2=C(C)NC(C)=C(C(=O)Nc3ccc(OCC)cc3)C2c2ccc([N+](=O)[O-])cc2)cc1	70.7	> 100	> 100		> 100	56.3			
C/C=C/C1(NS(=O)(=O)c2ccc(C)cc2)CCC(C(C)(C)C)CC1 (centres undefined)	39.3	> 100	41	31.5	> 100	38.7	> 100	71.8	
Cc1cccc(C)c1NC(=O)C(=O)C1C(=O)N(c2ccccc2)N=C1N (centres undefined)		> 100	> 100	> 100	> 100	> 100	> 100		
CCC(=O)O[C@@H]1C2C(OC(C)=O)C34COC(C)([C@@H]3C3C(C[C@]3(C)OC(C)=O)[C@@H](OC(=O)c3ccccc3)C4=O)[C@H](OC(C)=O)[C@@]2(OC(C)=O)C[C@@H]1C (some centres undefined)		> 100	> 100	> 100	> 100	> 100	> 100	> 100	
C[Si](C)(C)/C(Br)=C\CCN1C(=O)CCC1O (centres undefined)	> 100		> 100	> 100	> 100	> 100	> 100		
CC(O)CN(CCN(CC(C)O)CC(C)O)CC(C)O.O=[N+]([O-])O.[Cu+2] (centres undefined)									GI50 [9]: > 100 µM; TGI [9]: > 100 µM
CC(C)(C)c1ccccc1NS(=O)(=O)c1ccccc1	> 100		> 100	> 100	> 100	> 100		> 100	
O=Cc1ccc(C(F)(F)F)cc1.[C-]#[O+].[C-]#[O+].[C-]#[O+].[Cr]									GI50 [9]: 18 µM; TGI [9]: 55.1 µM
C[C@H](NC(=O)OC1C2C=CC(O)C1CC2)c1ccccc1 (some centres undefined)	> 100	> 100		> 100	> 100	> 100	> 100		
O=C(O)/C(Cl)=C(/Cl)C(=O)Nc1cccc(Cl)c1	34.3	34	30.4	18.9	30.3	47.3	43.3	49.1	TGI [9]: 37.4 µM
N#CC(C#N)=C1NC(=O)C(c2ccccc2)C(=O)N1 (centres undefined)	> 100	> 100	> 100	> 100	> 100	> 100		> 100	
CCCCCCCCCCCCC(Br)C(=O)SCCNC(=O)CCNC(=O)[C@@H](O)C(C)(C)COP(=O)(O)OP(=O)(O)OCC1OC(n2cnc3c(N)ncnc32)C(O)C1OP(=O)(O)O (some centres undefined)	> 56.5	> 56.5	> 56.5	> 56.5	> 56.5	> 56.5	> 56.5		
